Test results: article PMC8100298, “Histone deacetylase inhibitor resminostat in combination with sorafenib counteracts platelet-mediated pro-tumoral effects in hepatocellular carcinoma” (Scientific Reports, 2021)
Like-named read-outs stand apart in the source and are kept apart here.

Experiments:
SNU-475 = assay: Proliferation assay; type: cell-based; details: for EC50: Homo sapiens, read-out: EC50, anti-proliferative activity of kinase inhibitors
Description: (§1) The cell lines HepG2 (ACC180, RRID:CVCL_0027; DMSZ, Braunschweig Germany), SNU-475 (CRL-2236, Lot. 58483227, RRID:CVCL_0497; ATCC, Manassas, Virginia, US), SNU-387 (CRL-2237, Lot. 58483192, RRID:CVCL_0250; ATCC, Virginia, US), PLC/PRF/5 (300315, Lot. 812, RRID:CVCL_0485; CLS Cell Lines Service GmbH, Eppelheim, Germany) and HuH-7 (JCRB0403, Lot. 2272008, RRID:CVCL_0336; JCRB Cell Bank, Japan) were propagated according to the distributor’s guidelines. The authenticity of the cell lines was confirmed by short tandem repeat (STR) analysis (DSMZ, Braunschweig, Germany). Mycoplasma contamination was ruled out by PCR testing. For assays with platelet lysate (PL), FBS was substituted with 10% PLTMax Human Platelet Lysate (Cat. Nr. SCM141, Lot Number VP1602259; Millipore, Burlington, Massachusetts, US). The PL was supplemented with 20 U/ml Heparin (Heparin sodium salt from porcine intestinal mucosa, H4784-250MG; Sigma-Aldrich, Taufkirchen, Germany) to prevent coagulation.
(§2) Prior to the assay, the optimal seeding density was determined for each cell line to obtain an exponential growth during the experiment (2000 to 6000 cells per 96-well). Drug dilution series with 8 concentrations were prepared for EC50 determinations of single drugs. Three wells for each concentration were seeded (technical replicates). For drug combinations, dilution series of six concentrations for each drug alone or in combination at equal ratio were prepared. After 4 h of cell seeding, the drugs were added to the cells. Each 96-well plate contained a vehicle control (0.1% or 0.2% DMSO), a death control Ro 106-9920 (Tocris Cookson Ltd., Bristol, UK) a growth control (untreated cells compared to vehicle treated cells), and blank wells without cells. The proliferation assay was stopped after 4 days by crystal violet staining of the cells (0.5% in 20% methanol). Following extraction of the crystal violet with 8% acetic acid, the eluates were quantified photometrically at 570 nm and the reference wavelength 690 nm in an absorbance microplate reader (Tecan Sunrise; Tecan, Männedorf, Switzerland). Only readouts from 96-well plates with a Z-factor between 0.5 and 1.0 were used. Blank OD values were subtracted from the mean OD values. Nonlinear curve fitting and EC50 calculation was performed with Excel Solver.

PLC/PRF/5 = assay: Proliferation assay; type: cell-based; details: for EC50: Homo sapiens
Description: as §1, §2

[1] = tested on: PLC/PRF/5 and SNU-475 cells; assay: ELISA for growth factors PDGF-AA, TGF and VEGF; type: cell-based; details: tissue culture supernatants, with or without platelets (Fig. S4B)
Procedure: A. The growth factors PDGF-AA, TGFβ and VEGF were determined from tissue culture supernatants by ELISA. PLC/PRF/5 and SNU-475 cells were cultured with increasing […]
(1 picture or pasted object on this page, not shown here) […]
amounts of platelets. In parallel, platelets were cultured without cells to determine if the growth factors were platelet derived.
B. ELSIAs for PDGF-AA, TGFβ and VEGF were performed after drug treatment of PC/PRF/5 and SNU-475 cells. Cells were cultured as indicated with or without platelets and treated with resminostat, sorafenib, the drug combination or vehicle control 0.1% DMSO.
Table S1_ EC50 cell line screen
S1D. The cancer cell lines, their tissue origins and the respective EC50 values are shown.
Each cell line was seeded in duplicates.

[2] = tested on: Hep3B2.1-7 human hepatic carcinoma
Description: The orthotopic xenograft mouse model of Hep3B2.1–7 human hepatic carcinoma was previously established. Tumors were created by injection of 2.5 × 10^6 Hep3B2.1-7 cells (ATCC, RRID:CVCL_0326; Virginia, Manassas, USA) into the main lobe of the liver of anaesthetized female SCID mice (C.B-17-Igh-1bPrkdc(scid)). […] Treatments were continued for 21 days. Treatment of animals was ceased when the body weight dropped below 85% of that on entry of the study. Only mice culled at the termination date were used to determine the tumor weight. The experiment was conducted by vivoPharm pty Ltd (Bundoora, Australia) in accordance with the principles outlined in the “Australian Code of Practice for the Care and Use of Animals for Scientific Purposes”, 7th Edition, 2004 (National Health and Medical Research Council, Canberra, Australia). All procedures involving animals were reviewed and approved by the University of Adelaide Animal Ethics Committee. The study was carried out in compliance with the ARRIVE guidelines (http://www.nc3rs.org.uk/page.asp?id=1357). […]
invasion assay. The ODs of the invaded cells were normalized relative to ODs from tissue […]
Orthotopic xenograft mouse model
The orthotopic xenograft mouse model of Hep3B2.1-7 human hepatic carcinom a was previously established. The experiment was conducted by vivoPharm pty Ltd (Australia) in accordance with the principles outlined in the Australian Code of Practice for the Care and Use of Animals for Scientific Purposes, 7th Edition, 2004 (National Health and Medical Research Council). Procedures involving the care and use of animals in thi s study were reviewed and approved by the University of Adelaide Animal Ethics Committee. The study was carried out in compliance with the ARRIVE guidelines
(http://www.nc3rs.org.uk/page.asp?id=1357).
The animals were delivered to the test facility 1 1 days prior inoculation. On arrival, all animals received a detailed physical examination, including body weight measurement by the […]
technical staff. […] Each a nimal was identified by a transponder (Bar Code Data Systems Pty Ltd, Botany Bay, NSW, Australia) that could be scanned with a barcode reader (DataMars LabMax I). The transponder was implanted by subcutaneous injection between the shoulder blades while the mouse was under isoflurane-induced anaesthesia. The animals were housed in groups of six in micro-isolator cages (two cages per group). Each cage was clearly labelled with a cage card indicating study number, group, gender, and prescribed dose concentration and dose volume. The animals were kept in a controlled environment (targeted ranges: temperature 21 ± 3°C, humidity 30 -70%, 15 air changes per hour), with a light/dark cycle each of 12 hours, and under barrier (quarantine) conditions. Temperature and relative humidity were monitored continuously. All animals were subjected to the same environmental conditions. A standard certified commercial rodent diet (Rat and Mouse Cubes, Specialty Feeds Pty Ltd, Glen Forrest, WA, Australia) and tap water were provided to the animals ad libitum. Food supply was sterilized by autoclaving, and water […]
supply was sterilized by acidification with hydrochloric acid (pH 2.4-2.7) by Laboratory Animal Services, University of Adelaide (Adelaide, SA, Australia). Additional feed (a nimal seed, Magill Grain Store, Magill, SA, Australia), as well as wet standard feed was provided to all animals from Day 7 onwards, as a measure to minimize body w eight loss. The extent of adverse reaction was assessed during the study and mice were culled if severe adverse […]
The age range of the mice were 12-16 weeks at
Hep3B2.1-7 human hepatic carcinoma cells were sourced from the American Type Culture […]
Collection (ATCC; Virginia, USA).

HepG2 = assay: Proliferation assay; type: cell-based; details: for EC50: Homo sapiens, 96 h, 4 days
Description: as §1, §2

HuH-7 = assay: Proliferation assay; type: cell-based; details: for EC50: Homo sapiens, 96 h, 4 days
Description: as §1, §2

SNU-387 = assay: Proliferation assay; type: cell-based; details: SNU-387 vs HepG2, PLC/PRF/5, HuH-7 (Fig. 1F)
Description: as §1, §2

[3] = PLC/PRF/5 (Fig. 6B), read-out: EC50, anti-proliferative activity of kinase inhibitors

`C[C@@H](Oc1cc(-c2cnn(C3CCNCC3)c2)cnc1N)c1c(Cl)ccc(F)c1Cl` [crizotinib, Crizotinib] gave an EC50 (SNU-475; SNU-475 (Fig. 6B)) of about 5 µM and an EC50 (PLC/PRF/5; [3]) of about 5 µM.
In the case of `COc1cc2nccc(Oc3ccc(NC(=O)NC4CC4)c(Cl)c3)c2cc1C(N)=O` [lenvatinib, Lenvatinib], the EC50 (SNU-475; SNU-475 (Fig. 6B)) is reported as over 25 µM, the “EC50, anti-proliferative activity of kinase inhibitors” value (SNU-475; SNU-475 (Fig. 6B)) is reported as “could not be determined due to a lack of efficacy” and the EC50 (PLC/PRF/5; [3]) is reported as about 17 µM.
For `CNC(=O)c1cc(Oc2ccc(NC(=O)Nc3ccc(Cl)c(C(F)(F)F)c3)cc2)ccn1` [sorafenib, Sorafenib], the “growth factors released by platelets or secreted by HCC cells” value [1] was “not consistantly affected”, the “Tumour weight, Mean” value ([2]; 40 mg/kg oral once daily, 21 days, SCID mice) was 1.11 g and the “tumor weight compared to the vehicle control” value ([2]; daily resminostat 15 and 40 mg/kg, sorafenib 40 mg/kg, or combination (Fig. 1B)) was “significantly reduced tumor weight”. For the same molecule, the “EC50 compared to the epithelial cell lines” value (SNU-475; SNU-475 vs HepG2, PLC/PRF/5, HuH-7 (Fig. 1F)) was “about three-fold higher”, the EC50 (PLC/PRF/5; 96 h, PLC/PRF/5, fetal bovine serum, 4 days, read-out: EC50 in FBS) was 4.8 ± 0.6 µM and the EC50 (PLC/PRF/5; 96 h, PLC/PRF/5, platelet lysate, 4 days, absolute EC50, read-out: EC50 in PL, absolute EC50 (*)) was 22.1 ± 2.5 µM. For the same molecule, the “effect of platelet factors on potency and efficacy” value (PLC/PRF/5; PLC/PRF/5, platelet lysate vs FBS dose-response curves (Fig. 2A)) was “reduced”, the maximal inhibition (PLC/PRF/5; PLC/PRF/5, platelet lysate, at 25 µM) was “not reached” and the “Ratio PL/FBS” value (PLC/PRF/5; PLC/PRF/5, ratio of PL/FBS EC50s) was 4.6. The “Ratio PL/FBS” value (HepG2; HepG2, ratio of PL/FBS EC50s) was 6.4, the EC50 (HepG2; HepG2, fetal bovine serum, read-out: EC50 in FBS) was 1.8 ± 0.4 µM and the EC50 (HepG2; HepG2, platelet lysate, absolute EC50, read-out: EC50 in PL, absolute EC50 (*)) was 11.5 ± 1.3 µM. The EC50 (HuH-7; HuH-7, fetal bovine serum, read-out: EC50 in FBS) was 4.4 ± 0.9 µM, the EC50 (HuH-7; HuH-7, platelet lysate, absolute EC50, read-out: EC50 in PL, absolute EC50 (*)) was 14 ± 2.5 µM and the “Ratio PL/FBS” value (HuH-7; HuH-7, ratio of PL/FBS EC50s) was 3.2. The “EC50 compared to the epithelial cell lines” value (SNU-387) was “about three-fold higher”.
